From PubChem BioAssay (NCI)
Values joined by “and” are separate entries in the source; they are usually repeats but may differ in a detail not shown here. Equal entries are not always repeated.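 Step 1: Grow cells in 96-well plates. Step 2: Expose to compound for 48 hours at 5 concentrations. Step 3: Interpolate endpoints linearly; if unreached, use highest concentration. Abbreviation: GI50, concentration required for 50% inhibition of growth. TGI marks complete inhibition of growth.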

Experiments:
Assay in all cases: NCI tumour cell line growth inhibition, 48 h
DLD-1 colon = system: DLD-1 colon
M19-MEL melanoma = system: M19-MEL melanoma
DMS 114 small cell lung = system: DMS 114 small cell lung
LXFL 529 NSCLC = system: LXFL 529 NSCLC
RXF-631 renal = system: RXF-631 renal
HOP-18 NSCLC = system: HOP-18 NSCLC
KM20L2 colon = system: KM20L2 colon
XF 498 CNS = system: XF 498 CNS
MDA-N = system: MDA-N
P388/ADR leukemia = system: P388/ADR leukemia

| Compound | TGI (DLD-1 colon) [µM] | TGI (M19-MEL melanoma) | TGI (DMS 114 small cell lung) | TGI (LXFL 529 NSCLC) [µM] | TGI (HOP-18 NSCLC) [µM] | TGI (KM20L2 colon) | TGI (XF 498 CNS) [µM] | TGI (MDA-N) | further results |
| --- | --- | --- | --- | --- | --- | --- | --- | --- | --- |
| Cc1cc2c(=O)cc(-c3ccc(C(F)(F)F)cc3)oc2c(C(=O)O)c1C | > 100 | > 100 µM | > 100 µM | > 100 | > 100 | > 100 µM | > 100 |  | TGI (RXF-631 renal): > 100 µM |
| CNS(=O)(=O)c1ccccc1C(=N)c1ccccc1 |  |  |  |  |  |  |  | > 100 µM |  |
| NC1=NN(c2ccccc2)C(=O)C1/C(=N\NC(=O)c1cc2ccccc2cc1O)C(=O)Nc1nc([N+](=O)[O-])cs1 (centres undefined) | > 77.2 | > 82.9 µM | 45.6 µM | > 100 | > 100 | > 100 µM | > 100 |  | TGI (RXF-631 renal): > 71.7 µM |
| COc1cc[c]([Sb]([Br])([CH]=C(C)C)([CH]=C(C)C)[CH]=C(C)C)cc1 | > 100 | > 100 µM | 20.8 µM | 39.3 |  | > 100 µM |  |  | GI50 (DLD-1 colon): 24.1 µM; GI50 (M19-MEL melanoma): 3.1 µM; GI50 (DMS 114 small cell lung): 3.02 µM; GI50 (LXFL 529 NSCLC): 2.88 µM; GI50 (KM20L2 colon): 5.06 µM |
| O=C(c1ccccn1)c1nc(-c2ccc(Cl)c(Cl)c2)nc2ccc(Cl)cc12 | > 100 | > 100 µM | > 100 µM | > 100 |  | > 100 µM | 55.3 |  |  |
| CCC(C(=O)c1cccs1)C(O)(C(F)(F)F)C(F)(F)F (centres undefined) |  |  |  |  |  |  |  | > 100 µM |  |
| COc1ccc2[nH]c3c(C)c4cc[n+](C)cc4c(C)c3c2c1 |  | 3.69 µM and 2.48 µM and 2.89 µM | 2.52 µM and 1.72 µM and 1.56 µM | 3.41 |  | 34.2 µM [middle of 4 runs] |  | > 100 µM and 84.9 µM and 63 µM | GI50 (DLD-1 colon): 0.889 µM and 0.835 µM; GI50 (MDA-N): 9.89 µM and 2.19 µM and 14.7 µM; GI50 (M19-MEL melanoma): 0.327 µM; GI50 (DMS 114 small cell lung): 0.104 µM; GI50 (P388/ADR leukemia): 20.8 µM; TGI (P388/ADR leukemia): > 56.2 µM and > 75 µM and 125 µM; GI50 (LXFL 529 NSCLC): 0.383 µM; GI50 (KM20L2 colon): 1.68 µM and 1.35 µM |
| N.N.N.N.N.N#N.[Cl-].[Os+7] | > 100 |  |  | > 100 | > 100 | > 100 µM |  |  | GI50 (DLD-1 colon): > 100 µM; GI50 (LXFL 529 NSCLC): > 100 µM; GI50 (HOP-18 NSCLC): > 100 µM; GI50 (KM20L2 colon): > 100 µM |
| CC(N)(Cc1c[nH]c2ccccc12)C(=O)O (centres undefined) |  |  |  |  |  |  |  | > 100 µM |  |
| [C-]#[O+].[C-]#[O+].[Ir].[O-]c1ccc2ccccc2c1N=Nc1ccccc1 | 12.4 | 21.2 µM | 8.68 µM |  | 10.3 |  | 5.18 | 18.8 µM | GI50 (DLD-1 colon): 3.3 µM; GI50 (M19-MEL melanoma): 3.24 µM; GI50 (DMS 114 small cell lung): 2.68 µM; GI50 (HOP-18 NSCLC): 0.313 µM; GI50 (XF 498 CNS): 2.14 µM |
| NC(=S)N/N=C1\C(=O)N(CCc2ccccc2)C(=O)C1C(=O)NCCc1ccccc1 (centres undefined) |  | > 100 µM | > 100 µM | > 100 | > 100 | > 100 µM |  |  |  |
| O=C(N[C@@H]1C=CCC[C@@H]1c1ccccc1)OCc1ccccc1 | > 85.6 | 45.1 µM | 45.1 µM | 49.8 | 46.9 | 40.6 µM | 35.9 |  |  |
| CC(C)[C@](O)(C(=O)OCC1=CC[N+]2([O-])CC[C@@H](O)[C@@H]12)[C@H](C)O (some centres undefined) | > 10000 | > 10000 µM |  |  | > 10000 | > 10000 µM |  | > 10000 µM | TGI (P388/ADR leukemia): > 10000 µM |
| O=C(c1ccco1)c1ccccc1C(=O)c1ccco1 | > 100 | > 100 µM | > 100 µM | > 100 | > 100 | > 100 µM | > 100 |  | TGI (RXF-631 renal): > 100 µM |
| CN(C)c1ccc(/C=C/c2ccnc3ccc4ccccc4c23)cc1 |  |  |  |  |  |  |  | > 100 µM |  |
